Legend:
LNCaP cells = experiment: MTT cytotoxicity assay in ETV1-positive LNCaP cells; assay type: cell-based; settings: 72 hours
Experimental: FIG. 1.8 Cytotoxicity of compounds 827 and 832 in the ETV1-postive LNCaP cells as evaluated by MTT assay (72 hours).

ETV1 = molecular target: T1, ETV1 (Homo sapiens, UniProt P50549); experiment: ETV1-dependent reporter assay in HEK293 cells; assay type: cell-based; settings: 48 hours
T1 construct: expressed in transfected cells; host or cells: HEK293
T1 sequence (P50549 1-477): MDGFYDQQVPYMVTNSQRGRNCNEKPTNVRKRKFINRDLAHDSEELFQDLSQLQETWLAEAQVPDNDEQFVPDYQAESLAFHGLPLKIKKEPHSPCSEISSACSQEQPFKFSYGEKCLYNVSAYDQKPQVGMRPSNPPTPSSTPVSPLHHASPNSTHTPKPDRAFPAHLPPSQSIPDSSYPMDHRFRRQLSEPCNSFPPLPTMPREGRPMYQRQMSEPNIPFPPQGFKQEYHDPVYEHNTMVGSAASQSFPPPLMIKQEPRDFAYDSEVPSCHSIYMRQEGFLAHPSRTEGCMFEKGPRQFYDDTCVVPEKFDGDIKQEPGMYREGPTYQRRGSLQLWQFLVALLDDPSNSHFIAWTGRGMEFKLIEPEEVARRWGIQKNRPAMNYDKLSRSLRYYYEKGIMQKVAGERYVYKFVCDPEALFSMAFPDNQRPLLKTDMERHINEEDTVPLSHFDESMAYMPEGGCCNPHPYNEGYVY
Experimental: HEK293 cells were transiently transfected with empty vector (for the NT) or ERG-expressing plasmid as well as pRL-TK (internal control) and PUx3-Luc reporter. Cells were then exposed to DMSO vehicle or compounds at designated doses for 48 hours. Experiments were done in triplicate.
Experiments were done as described above in FIG. 1.1a) except that ERG plasmid was replaced by ETV1 plasmid.

Compound	cytotoxicity in ETV1-positive LNCaP cells (MTT) (LNCaP cells)	ETV1 inhibition in ETV1-dependent reporter assay (ETV1)
c1coc(-c2nc(Cc3c[nH]c4ccccc34)oc2-c2ccco2)c1 [Compound 827]	cytotoxic	ETV1 inhibitors
c1coc(-c2nc(Cc3c[nH]c4ccccc34)[nH]c2-c2ccco2)c1 [Compound 832]	cytotoxic	ETV1 inhibitors
